Experimental data published in PubChem BioAssay AID1845200 (Molecular Pharmacology Branch, DTP, NCI, 2023).
Where “and” joins values, the source holds several entries; their conditions need not be identical. Identical values can stand only once. Calls of active or inactive are those of the source. How the source made its calls: active means viability on the fitted dose curve at most 10% of control; inactive means the rest.

System: ASPS-1 complex tumor spheroids, viability
Assay: Anticancer human tumor ASPS-1 cell line growth inhibition;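 further: spheroids exposed to agents for 7 days after 3 days of growth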;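 on viability, T/C: 100% = DMSO vehicle treated spheroids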
Conditions: for viability, T/C: stronger effect = lower value
Description: Multicellular complex tumor spheroid response to DNA repair inhibitors in combination with DNA-damaging drugs
This study explores the anticancer activities of DNA-damaging drugs and inhibitors of DNA damage repair, both as single agents and in combinations. Complex tumor spheroids comprised of malignant cells, endothelial cells and mesenchymal stem cells served as an in vitro model for human solid tumors. This model system incorporates physiologically relevant features and patient-derived or established malignant cell lines with clinically relevant genetic alterations from many tumor types. Twenty-six patient-derived or established malignant cell lines were evaluated representing sarcoma, melanoma, small cell lung cancer (SCLC), non-small cell lung cancer (NSCLC), as well as bladder, ovarian and pancreatic cancers. The concentration ranges selected for each drug and investigational agent were based upon clinically achievable concentrations if the clinical Cmax of the agent was known.
Compounds. The drugs and compounds olaparib (NSC753686), talazoparib (NSC767125), berzosertib (NSC777718), elimusertib (NSC800525), nedisertib (NSC802822), VX-984 (NSC792969), AZD-1390 (NSC803789), temozolomide (NSC362856), topotecan (NSC609699), trabectedin (NSC813783), staurosporine (NSC755774), and gemcitabine (NSC613327) were obtained from the National Cancer Institute (NCI) Developmental Therapeutics Program Chemical Repository. The FDA-approved anticancer drug set is available from the Developmental Therapeutics Program at https://dtp.cancer.gov/organization/dscb/obtaining/available_plates.htm. […] The stock solutions were prepared in dimethyl sulfoxide (DMSO, Sigma-Aldrich, St. Louis, MO, cat. D2650) at 400-fold the tested concentration and stored at -70 degrees C. Prior to their use, the stock solutions were diluted in fresh medium and the final DMSO concentration in the assay was 0.25% (v/v). All drugs and investigational agents were tested over a range starting from a high concentration at or near the clinical Cmax and decreasing in half-log increments. If the clinical Cmax for an agent had not been determined, the highest concentration tested was 10 microM.
Cell Lines. The patient-derived cancer cell (PDC) lines: 156681-154-R-J1-PDC, 283228-195-R-J1-PDC, 287954-098-R-J1-PDC, 292921-168-R-J2-PDC, 349418-098-R-PDC, 425362-245-T-J1-PDC, 556581-035-R-J1-PDC, and BL0293-F563-PDC were received from the NCI Patient-Derived Models Repository (PDMR, https://pdmr.cancer.gov). The established cell lines HS-SY-2 (RRID:CVCL_8719), MPNST, and SYO-1 (RRID:CVCL_7146) were obtained from the Sloan Kettering Institute. The alveolar soft parts sarcoma cell line ASPS-1 (RRID:CVCL_S738) was established at the NCI and grown from internal seed stocks. The following established cell lines were purchased from the American Type Culture Collection (ATCC, Manassas, VA): G-401 (ATCC, cat. CRL-1441, RRID:CVCL_0270), SW982 (ATCC, cat. HTB-93, RRID:CVCL_1734), VA-ES-BJ (ATCC, cat. CRL-2138, RRID:CVCL_1785), NCI-H719 (ATCC, cat. CRL-5837, RRID:CVCL_1582), NCI-H196 (ATCC, cat. CRL-5823, RRID:CVCL_1509), NCI-H841 (ATCC, cat. CRL-5845, RRID:CVCL_1595), NCI-H1618 (ATCC, cat. CRL-5879, RRID:CVCL_1480), NCI-H1876 (ATCC, cat. CRL-5902, RRID:CVCL_1503), DMS 114 (ATCC, cat. CRL-2066; RRID:CVCL_1174), NCI-H211 (ATCC, cat. CRL-5824; RRID:CVCL_1529), and SW 1271 (ATCC, cat. CRL-2177, RRID:CVCL_1716). The small cell lung cancer cell line COR-L88 was purchased from Sigma-Aldrich (cat. 92031917-1VL, RRID:CVCL_1141). The non-small cell lung cancer cell lines NCI-H226 (RRID:CVCL_1544) and NCI-H322M (RRID:CVCL_1557) were established at the NCI and grown from internal seed stocks. Pooled donor human umbilical vein endothelial cells (HUVEC, Lonza, cat. CC-2519) and human mesenchymal stem cells (hMSC, Lonza, cat. PT-2501) were purchased from Lonza (Walkersville, MD).
Cell Culture. All cells were maintained in an incubator at 37 degrees C and 5% CO2 with 95% humidity. […]

CC(C)n1c(=O)n(C)c2cnc3cc(F)c(-c4ccc(OCCCN5CCCCC5)nc4)cc3c21 + Cn1nnc2c(C(N)=O)ncn2c1=O showed an IC50 (curve of first compound, second compound 1 µM) of 8400 nM, an IC50 (curve of first compound, second compound 3.16 µM) of 8140 nM and an IC50 (curve of first compound, second compound 10 µM) of 2560 nM. For the same compound, the IC50 (curve of first compound, second compound 31.6 µM) was 1580 nM, the IC50 (curve of first compound, second compound 100 µM) was 386 nM and the viability, T/C (second compound 1 µM, first compound 0.0316 µM) was 106%. It also gave a viability, T/C (second compound 1 µM, first compound 0.1 µM) of 104%, a viability, T/C (second compound 1 µM, first compound 0.316 µM) of 102% and a viability, T/C (second compound 1 µM, first compound 1 µM) of 102%. For the same compound, the viability, T/C (second compound 1 µM, first compound 3.16 µM) was 93.4%, the viability, T/C (second compound 1 µM, first compound 10 µM) was 42.1% and the viability, T/C (second compound 3.16 µM, first compound 0.0316 µM) was 102%. It also gave a viability, T/C (second compound 3.16 µM, first compound 0.1 µM) of 102%, a viability, T/C (second compound 3.16 µM, first compound 0.316 µM) of 103% and a viability, T/C (second compound 3.16 µM, first compound 1 µM) of 88.7%. The viability, T/C (second compound 3.16 µM, first compound 3.16 µM) was 82.4%, the viability, T/C (second compound 3.16 µM, first compound 10 µM) was 43% and the viability, T/C (second compound 10 µM, first compound 0.0316 µM) was 91.4%. The viability, T/C (second compound 10 µM, first compound 0.1 µM) was 79.8%, the viability, T/C (second compound 10 µM, first compound 0.316 µM) was 83.5% and the viability, T/C (second compound 10 µM, first compound 1 µM) was 86.7%. It also gave a viability, T/C (second compound 10 µM, first compound 3.16 µM) of 42%, a viability, T/C (second compound 10 µM, first compound 10 µM) of 25.4% and a viability, T/C (second compound 31.6 µM, first compound 0.0316 µM) of 81.1%. For the same compound, the viability, T/C (second compound 31.6 µM, first compound 0.1 µM) was 78.1%, the viability, T/C (second compound 31.6 µM, first compound 0.316 µM) was 77.7% and the viability, T/C (second compound 31.6 µM, first compound 1 µM) was 54.7%. For the same compound, the viability, T/C (second compound 31.6 µM, first compound 3.16 µM) was 39.3%, the viability, T/C (second compound 31.6 µM, first compound 10 µM) was 19.9% and the viability, T/C (second compound 100 µM, first compound 0.0316 µM) was 74.5%. For the same compound, the viability, T/C (second compound 100 µM, first compound 0.1 µM) was 60.5%, the viability, T/C (second compound 100 µM, first compound 0.316 µM) was 56.1% and the viability, T/C (second compound 100 µM, first compound 1 µM) was 41.2%. For the same compound, the viability, T/C (second compound 100 µM, first compound 3.16 µM) was 24.4% and the viability, T/C (second compound 100 µM, first compound 10 µM) was 20.2%.
Compound CNCc1ccc(-c2cc(-c3nc(-c4ccc(S(=O)(=O)C(C)C)cc4)cnc3N)on2)cc1 + COc1cc2c(cc1O)CCNC21CSC2c3c(OC(C)=O)c(C)c4c(c3C(COC1=O)N1C(O)C3Cc5cc(C)c(OC)c(O)c5C(C21)N3C)OCO4 has an IC50 (curve of first compound, second compound 30 pM) of 922 nM, an IC50 (curve of first compound, second compound 94.9 pM) of 857 nM and an IC50 (curve of first compound, second compound 0.0003 µM) of 552 nM. For the same compound, the IC50 (curve of first compound, second compound 0.000949 µM) was 185 nM, the IC50 (curve of first compound, second compound 0.003 µM) was under 9.49 nM and the viability, T/C (second compound 30 pM, first compound 0.00949 µM) was 109%. It also gave a viability, T/C (second compound 30 pM, first compound 0.03 µM) of 104%, a viability, T/C (second compound 30 pM, first compound 0.0949 µM) of 105% and a viability, T/C (second compound 30 pM, first compound 0.3 µM) of 74.3%. It also gave a viability, T/C (second compound 30 pM, first compound 0.949 µM) of 51.9%, a viability, T/C (second compound 30 pM, first compound 3 µM) of 14.9% and a viability, T/C (second compound 94.9 pM, first compound 0.00949 µM) of 106%. For the same compound, the viability, T/C (second compound 94.9 pM, first compound 0.03 µM) was 108%, the viability, T/C (second compound 94.9 pM, first compound 0.0949 µM) was 108% and the viability, T/C (second compound 94.9 pM, first compound 0.3 µM) was 80.8%. For the same compound, the viability, T/C (second compound 94.9 pM, first compound 0.949 µM) was 48.3%, the viability, T/C (second compound 94.9 pM, first compound 3 µM) was 9.57% and the viability, T/C (second compound 0.0003 µM, first compound 0.00949 µM) was 106%. The viability, T/C (second compound 0.0003 µM, first compound 0.03 µM) was 111%, the viability, T/C (second compound 0.0003 µM, first compound 0.0949 µM) was 102% and the viability, T/C (second compound 0.0003 µM, first compound 0.3 µM) was 66.4%. The viability, T/C (second compound 0.0003 µM, first compound 0.949 µM) was 34.7%, the viability, T/C (second compound 0.0003 µM, first compound 3 µM) was 5.83% and the viability, T/C (second compound 0.000949 µM, first compound 0.00949 µM) was 85.8%. It also gave a viability, T/C (second compound 0.000949 µM, first compound 0.03 µM) of 83%, a viability, T/C (second compound 0.000949 µM, first compound 0.0949 µM) of 64.9% and a viability, T/C (second compound 0.000949 µM, first compound 0.3 µM) of 36.1%. It also gave a viability, T/C (second compound 0.000949 µM, first compound 0.949 µM) of 20.2%, a viability, T/C (second compound 0.000949 µM, first compound 3 µM) of 1.09% and a viability, T/C (second compound 0.003 µM, first compound 0.00949 µM) of 16.9%. It also gave a viability, T/C (second compound 0.003 µM, first compound 0.03 µM) of 24.3%, a viability, T/C (second compound 0.003 µM, first compound 0.0949 µM) of 15.2% and a viability, T/C (second compound 0.003 µM, first compound 0.3 µM) of 2.85%. For the same compound, the viability, T/C (second compound 0.003 µM, first compound 0.949 µM) was 0.66% and the viability, T/C (second compound 0.003 µM, first compound 3 µM) was 0.65%.
With CC[C@@]1(O)C(=O)OCc2c1cc1n(c2=O)Cc2cc3c(CN(C)C)c(O)ccc3nc2-1 the viability, T/C (compound 0.003 µM) was 101% [middle of 10 runs], the viability, T/C (compound 0.00949 µM) was 103% [middle of 10 runs] and the viability, T/C (compound 0.03 µM) was 96.3% [middle of 10 runs]. The viability, T/C (compound 0.0949 µM) was 56.3% [middle of 10 runs], the IC50 (compound alone, run of 11/07/2019) was 222 nM and 160 nM and > 300 nM and the IC50 (compound alone, run of 12/16/2019) was over 300 nM.
[2H]c1nc(C)nc([2H])c1-c1cc(NC[C@@H](C)c2cccc3c(C(=O)NC)ccnc23)ncn1 was tested, and the viability, T/C (compound 0.0316 µM) was 107% and 101% and 102%, the outcome (compound 0.1 µM) was “inactive” and the viability, T/C (compound 0.1 µM) was 108% and 104%. For the same compound, the outcome (compound 0.316 µM) was “inactive”, the viability, T/C (compound 0.316 µM) was 108% and 104% and the viability, T/C (compound 1 µM) was 106% and 113% and 95.1%. For the same compound, the viability, T/C (compound 3.16 µM) was 103% and 107% and 100%, the viability, T/C (compound 10 µM) was 97.9% and 101% and 95.2% and the IC50 (curve of compound) was over 10000 nM.
